# Structures can show the parent of a compound that is named as a salt.
# Tests used:
# pan-HDAC = assay: In vitro enzyme inhibition assay - HDAC (HDAC-Glo I/II), pan-HDAC; assay type: biochemical
# Protocol: 2. In Vitro Enzyme Inhibition Assay—HDAC
# The effect of the compound on the enzymatic activity of pan-HDAC and two isoforms (HDAC1 and HDAC8) was examined using the HDAC-Glo I/II Assay and Screening System assay to assess the level of inhibition of HDAC protease activity and selectivity in each isoform. The proteins and detection reagents were from the HDAC-Glo™ I/II Assay and Screening System (Promega). A 1 mM stock solution of the compound was prepared in DMSO and diluted in a 5-fold gradient to create a series of 8 concentrations, and a specific volume of the highest concentration was diluted 25 times with HDAC Buffer to obtain 4× working solution of the compound. […] The 384-well plate was then read on a multifunctional microplate reader, with the Luminescence channel selected to record Luminescence values (RLU). The inhibition rate was calculated using the following formula: […]
# (§1) Note: ‘Negative’ refers to the group without the inhibitor; ‘Blank’ refers to the group without the enzyme.
# (§2) The IC50 value was calculated by fitting the inhibition rate by GraphPad Prism software, employing log (inhibitor) vs. response-Variable Slope (four parameters) model.
# LSD1 = LSD1 (Homo sapiens (Human), UniProt O60341); assay: In vitro enzyme inhibition assay - LSD1 (HTRF); assay type: biochemical
# Protocol: 1. In Vitro Enzyme Inhibition Assay—LSD1
# Initially, a master solution of 90 μM test compound (dissolved in DMSO) was prepared and sequentially diluted with DMSO in a 5-fold concentration gradient to yield a total of 9 concentrations of the compound working solution 1 (90×). Subsequently these 9 concentrations of working solution 1 were sequentially diluted by a 30-fold concentration gradient, i.e., 2 μL of working solution 1 was aspirated and added to 58 μL of Buffer, mixed on a vortex mixer with sufficient shaking to yield 9 concentrations of the screening test compound working solution 2 (3×). […] The mixture was incubated at room temperature for 15 minutes. […] Afterward, 2 μL of a termination solution (containing 5.4 mM 2-PCPA) was added to each well, mixed evenly, and incubated for another 15 minutes. Finally 4 μL of a pre-mixed antibody solution of Eu-anti H3K4 (PerkinElmer, TRF0404-D) and allophycocyanin (Prozyme, PJ27S) (1:1) was added to each well, mixed evenly, and incubated for 60 minutes. […] The inhibition rate was calculated through the following formula: […]
# as §1, §2
# NCI-H1417 cells = assay: In vitro cell inhibition assay - H1417 cell proliferation (CellTiter-Glo); assay type: cell-based; settings: Homo sapiens, NCI-H1417, H1417 small cell lung cancer cell proliferation
# Protocol: 3. In Vitro Cell Inhibition Assay—H1417 Cell Proliferation
# The inhibitory effect of the compounds on cell proliferation was assessed by detecting the number of viable cells using the CellTiter-Glo® reagent. […] The compounds were sequentially diluted in a 5-fold concentration gradient with DMSO to obtain 8 different concentrations o. These were diluted with BEGM (containing 10% FBS) cell culture medium to obtain the compound working solution (2×), which was added to the cell supernatant at 100 μL per well. The incubation continued for 7 days at 37° C., 5% CO2. The plate was then removed and equilibrated to room temperature (25° C.) along with the CellTiter-Glo® mixing reagent for 10-30 minutes. After centrifugation, 100 μL of the culture medium was carefully aspirated from each well, and 85 μL of CellTiter-Glo® reagent was added. The cells were thoroughly mixed with the CellTiter-Glo® mixing reagent using a microplate shaker for 2 min. and then incubated at room temperature for 10 min. The 96-well plate was subsequently placed on a multifunctional microplate reader to record the Luminescence values (RLU). • The inhibition rate was calculated using the following formula: […]
# (§3) Note: ‘Negative’ refers to the group without inhibitors; ‘Blank’ refers to the group without cells.
# (§4) The IC50 value was determined by fitting the inhibition rate by GraphPad Prism software.
# NCI-H69 cells = assay: In vitro cell inhibition assay - NCI-H69 cell proliferation (CellTiter-Glo); assay type: cell-based; settings: Homo sapiens, NCI-H69, H69 small cell lung cancer cell proliferation
# Protocol: 4. In Vitro Cell Inhibition Assay—NCI-H69 Cell Proliferation
# The inhibitory effect of the compounds on cell proliferation was assessed by detecting the number of viable cells using the CellTiter-Glo® reagent. NCI-H69 cells in the logarithmic growth phase were collected and inoculated into transparent bottom 96-well plates at a density 1×10^3 cells per well with 100 μL medium, and incubated at 37° C., 5% CO2 overnight. The compounds were sequentially diluted in a 5-fold concentration gradient with DMSO to obtain 8 different concentrations These were then diluted with RPMI-640 (containing 20% FBS) cell culture medium to obtain the compounds working solution (2×), which was added to the cell supernatant at 100 μL per well. The incubation continued for 7 days at 37° C., 5% CO2. The plate was then removed and equilibrated to room temperature (25° C.) along with the CellTiter-Glo® mixing reagent for 10-30 minutes. After centrifugation at 1200 rpm for 5 minutes, 120 μL of the culture medium was carefully aspirated from each well, and 60 μL of CellTiter-Glo® reagent was added. The cells were thoroughly mixed with the CellTiter-Glo® mixing reagent using a microplate shaker for 2 min. and then incubated at room temperature for 10 min. The 96-well plate was subsequently placed on a multifunctional microplate reader to record the Luminescence values (RLU).
# The inhibition rate was calculated using the following formula: […]
# as §3, §4
Compound,IC50 (pan-HDAC),IC50 (LSD1),IC50 (NCI-H1417 cells),IC50 (NCI-H69 cells)
"COc1ccc(-c2c(OCCCCCCC(=O)NO)cc(N3CCC(N)CC3)nc2-c2ccc(C#N)c(F)c2)cc1F [Example 3, 7-(6-(4-Aminopiperidin-1-yl)-2-(4-cyano-3-fluorophenyl)-3-(3-fluoro-4-methoxyphenyl)pyridin-4-yl)oxy-N-hydroxyheptanamide hydrochloride]",29 nM,13.7 nM,226 nM,–
"CS(=O)(=O)c1ccc(-c2c(OCCCCCCC(=O)NO)cc(N3CCC(N)CC3)nc2-c2ccc(C#N)c(F)c2)cc1 [Example 4, 7-(6-(4-Aminopiperidin-1-yl)-2-(4-cyano-3-fluorophenyl)-3-(4-(methylsulfonyl)phenyl)pyridin-4-yl)oxy)-N-hydroxyheptanamide hydrochloride]",12 nM,11.9 nM,209 nM,–
"COc1ccc(-c2c(OCCCCCCC(=O)NO)cc(N3C4CCC3CC(N)C4)nc2-c2ccc(C#N)c(F)c2)cc1O (centres unmarked) [Example 9, 7-((6-(3-Amino-8-azabicyclo[3.2.1]octan-8-yl)-2-(4-cyano-3-fluorophenyl)-3-(3-hydroxy-4-methoxyphenyl)pyridin-4-yl)oxy)-N-hydroxyheptanamide hydrochloride]",25.3 nM,1.82 nM,915 nM,3100 nM
"COc1ccc(-c2c(OCCCCCCC(=O)NO)cc(N3CCC(N)CC3)nc2-c2ccc(C#N)cc2)cc1O [Example 12, 7-((6-(4-Aminopiperidin-1-yl)-2-(4-cyanophenyl)-3-(3-hydroxy-4-methoxyphenyl)pyridin-4-yl)oxy)-N-hydroxyheptanamide]",7.31 nM,0.92 nM,–,–
"COc1ccc(-c2c(OCCCCCCC(=O)NO)cc(N3CC4CC3CC4N)nc2-c2ccc(C#N)c(F)c2)cc1O (centres unmarked) [Example 15, 7-((6-(5-Amino-2-azabicyclo[2.2.1]heptan-2-yl)-2-(4-cyano-3-fluorophenyl)-3-(3-hydroxy-4-methoxyphenyl)pyridin-4-yl)oxy)-N-hydroxyheptanamide hydrochloride]",27.5 nM,1.45 nM,221 nM,2990 nM
"N#Cc1ccc(-c2nc(N3CCC(N)CC3)cc(OCCCCCCC(=O)NO)c2-c2ccc(OCCO)cc2)cc1F [Example 17, 7-((6-(4-Aminopiperidin-1-yl)-2-(4-cyano-3-fluorophenyl)-3-(4-(2-hydroxyethoxy)phenyl)pyridin-4-yl)oxy)-N-hydroxyheptanamide formate]",21.6 nM,23.8 nM,> 1000 nM,3270 nM
"N#Cc1ccc(-c2nc(N3CC4CC3CC4N)n3ccnc3c2-c2ccc(OCCCCCCC(=O)NO)c(O)c2)cc1F (centres unmarked) [Example 22, 7-(4-(5-(5-(5-Amino-2-azabicyclo[2.2.1]heptan-2-yl)-7-(4-cyano-3-fluorophenyl)imidazo[1,2-c]pyrimidin-8-yl)-2-hydroxyphenoxy)-N-hydroxyheptanamide hydrochloride]",144 nM,0.31 nM,106 nM,4730 nM
"Cc1nc(N2CCC(N)CC2)c(C#N)c(-c2ccc(C#N)c(F)c2)c1-c1ccc(OCCCCCCC(=O)NO)c(O)c1 [Example 26, 7-(4-(6-(4-Aminopiperidin-1-yl)-5-cyano-4-(4-cyano-3-fluorophenyl)-2-methylpyridin-3-yl)-2-hydroxyphenoxy)-N-hydroxyheptanamide hydrochloride]",35 nM,0.12 nM,152 nM,–
"COc1ccc(-c2c(-c3ccc(C#N)c(F)c3)nc(N3CCC(NCCCCCCC(=O)NO)CC3)n3ccnc23)cc1O [Example 35, 7-((1-(7-(4-Cyano-3-fluorophenyl)-8-(3-hydroxy-4-methoxy-phenyl)imidazo[1,2-c]pyrimidin-5-yl)piperidin-4-yl)amino)-N-hydroxy-heptanamide hydrochloride]",266 nM,4.63 nM,188 nM,–
"N#Cc1ccc(-c2nc(N3CCC(N)CC3)n3ccnc3c2-c2ccc(NC(=O)CCCCCCC(=O)NO)c(O)c2)cc1F [Example 57, N^1-(4-(5-(4-aminopiperidin-1-yl)-7-(4-cyano-3-fluorophenyl)imidazo[1,2-c]pyrimidin-8-yl)-2-hydroxyphenyl)-N^8-hydroxyoctanediamine diformate]",72 nM,0.26 nM,14.5 nM,–

# Now from value to compound:
IC50 (pan-HDAC),IC50 (LSD1),IC50 (NCI-H1417 cells),IC50 (NCI-H69 cells),Compound
39 nM,1.89 nM,21.2 nM,444 nM,"COc1ccc(-c2c(-c3ccc(C#N)c(F)c3)nc(N3CCC(NCc4ccc(/C=C/C(=O)NO)cc4)CC3)n(C)c2=O)cc1O [Example 67, (E)-3-(4-(((1-(4-(4-Cyano-3-fluorophenyl)-5-(3-hydroxy-4-methoxy-phenyl)-1-methyl-6-oxo-1,6-dihydro-pyrimidin-2-yl)piperidin-4-yl)amino)methyl)phenyl)-N-hydroxy-acrylamide formate]"
19.7 nM,2.12 nM,7.32 nM,76.1 nM,"COc1ccc(-c2cnc(N3CCC(C)(NCc4ccc(/C=C/C(=O)NO)nc4)CC3)c(C#N)c2-c2ccc(C#N)c(F)c2)cc1O [Example 213, (E)-3-(5-(((1-(3-Cyano-4-(4-cyano-3-fluorophenyl)-5-(3-hydroxy-4-methoxyphenyl)pyridin-2-yl)-4-methylpiperidin-4-yl)amino)methyl)pyridin-2-yl)-N-hydroxyacrylamide formate]"
143 nM,4.98 nM,7.9 nM,496 nM,"CC1(NCc2ccc(/C=C/C(=O)NO)cc2)CCN(c2ncc(-c3ccc(OC(F)(F)F)c(O)c3)c(-c3ccc(C#N)c(F)c3)c2C#N)CC1 [Example 214, (E)-3-(4-(((1-(3-Cyano-4-(4-cyano-3-fluorophenyl)-5-(3-hydroxy-4-(trifluoromethoxy)phenyl)pyridin-2-yl)-4-methylpiperidin-4-yl)amino)methyl)phenyl)-N-hydroxyacrylamide formate]"
68 nM,0.39 nM,2.65 nM,295 nM,"CC(C)(O)COc1ccc(-c2cnc(N3CCC(C)(NCc4ccc(/C=C/C(=O)NO)cc4)CC3)c(C#N)c2-c2ccc(C#N)c(F)c2)cc1O [Example 215, (E)-3-(4-(((1-(3-Cyano-4-(4-cyano-3-fluorophenyl)-5-(3-hydroxy-4-(2-hydroxy-2-methylpropoxy)phenyl)pyridin-2-yl)-4-methylpiperidin-4-yl)amino)methyl)phenyl)-N-hydroxyacrylamide formate]"
3.57 nM,0.15 nM,6.06 nM,51.6 nM,"COc1ccc(-c2cnc(N3CCC(NCc4ccc(SCC(=O)NO)cc4)CC3)c(C#N)c2-c2ccc(C#N)c(F)c2)cc1O [Example 216, 2-((4-((1-(3-cyano-4-(4-cyano-3-fluorophenyl)-5-(3-hydroxy-4-methoxyphenyl)pyridin-2-yl)piperidin-4-yl)amino)methyl)phenyl) thio)-N-hydroxyacetamide formate]"

# Reference: US20250304549A1, “HYDROXYAMIDE DERIVATIVE AND USE THEREOF” (SICHUAN HUIYU PHARMACEUTICAL CO., LTD., priority 2022, published 2025)
